The first assay concerns HSP70. The assay can be described thus: HSP70 levels in Neuro 2a cells, ELISA. The assay is classed as cell-based, mouse. The settings on record: 10 nM, 48 hrs compound then 24 hrs GGTI-298. Here is the method:
Mouse neuroblastoma 2a cells were cultured in DMEM with 10% FBS for 24 hrs. […] After 24 hrs cells were harvested and lysates were prepared and analyzed by ELISA for HSP70. Compound ID numbers in table refer to structures in Table 1 and Table 2.
On to `CC(C)=CCC/C(C)=C/CC/C(C)=C/COC(=S)NCCCN1CCOCC1` [Compound 9k, Morpholinyl-N-3′-propyl 2E, 6E-farnesyl thiocarbamate], for which the “HSP70 level, ELISA signal (absence of compounds normalized as 1.00)” value came out at 1.13. As to `CC(C)=CCC/C(C)=C/CC/C(C)=C/COC(=S)NC1CC1` [Compound 9d, Cyclopropyl 2E, 6E-farnesyl thiocarbamate], the “HSP70 level, ELISA signal (absence of compounds normalized as 1.00)” value is on record as 1.05.

The same assay, now with this note: 100 nM, 48 hrs compound then 24 hrs GGTI-298.
For `C=CCCC(=O)CC/C=C(\C)CC/C=C(\C)CC/C=C(\C)CCC=C(C)C` [Compound 146], the “HSP70 level, ELISA signal (absence of compounds normalized as 1.00)” value is listed as 1.13.

With `CCC(=O)CC/C=C(\C)CC/C=C(\C)CCC=C(C)C` [Compound 102], the “HSP70 level, ELISA signal (absence of compounds normalized as 1.00)” value was found to be 1.04.

With `CC(C)=CCC/C(C)=C/CC/C(C)=C/CC/C(C)=C/COC(=S)NCc1ccco1` [Compound 38b, O-((2E,6E,10E)-3,7,11,15-tetramethylhexadeca-2,6,10,14-tetraen-1-yl) (furan-2-ylmethyl)carbamothioate], the “HSP70 level, ELISA signal (absence of compounds normalized as 1.00)” value turned out to be 1.04.

For the compound `CCCC(=O)CC/C=C(\C)CC/C=C(\C)CC/C=C(\C)CCC=C(C)C` [Compound 73], the “HSP70 level, ELISA signal (absence of compounds normalized as 1.00)” value is on record as 0.99. On the same count and under the same terms, next, `CON=C(C)CC/C=C(\C)CC/C=C(\C)CC/C=C(\C)CCC=C(C)C` [Compound 104]: 0.90.

With `CCOC(=O)C(C)(C/C=C(\C)CC/C=C(\C)CC/C=C(\C)CCC=C(C)C)C(C)=O` (stereo not drawn) [Compound 78], the “HSP70 level, ELISA signal (absence of compounds normalized as 1.00)” value was determined as 1.00. The same measure, in the same setting: with `CCCCCNC(=O)OC(C)CC/C=C(\C)CC/C=C(\C)CC/C=C(\C)CCC=C(C)C` (racemic) [Compound 23b, 5E, 9E, 13E-Geranylgeranyl-rac-prop-2-yl n-pentyl carbamate] the figure was 1.13; with `CC(C)=CCC/C(C)=C/CC/C(C)=C/CC/C(C)=C/CCC(C)OC(=O)NC1CCCC1` (racemic) [Compound 23c, Cyclopentyl 5E, 9E, 13E-geranylgeranyl-rac-prop-2-yl carbamate], 0.96. Same read-out and setting: with `CC(C)=CCC/C(C)=C/CC/C(C)=C/CC/C(C)=C/COC(=O)N1CCN(C)CC1` [Compound 40a] the figure was 0.99. The same measure, in the same setting: next, `CC(C)=CCC/C(C)=C/CC/C(C)=C/CC/C(C)=C/COC(=O)Nc1ccccc1` [Compound 7n, Phenyl 2E, 6E, 10E-geranylgeranyl carbamate]: 1.20; `CCOC(=O)C(C/C=C(\C)CC/C=C(\C)CC/C=C(\C)CCC=C(C)C)C(=O)C(C)C` (stereo not drawn) [Compound 77]: 1.03; `CC(C)=CCC/C(C)=C/CC/C(C)=C/CC/C(C)=C/CNCCCOC(C)C` [Compound 17d]: 1.01. Regarding `CC(C)=CCC/C(C)=C/CC/C(C)=C/CC/C(C)=C/CC/C(C)=N/OCc1ccccc1` [Compound 113], the “HSP70 level, ELISA signal (absence of compounds normalized as 1.00)” value was 1.01.

For `CCCC(=O)C(C/C=C(\C)CC/C=C(\C)CC/C=C(\C)CCC=C(C)C)C(=O)OCC` (stereo not drawn) [Compound 70], the “HSP70 level, ELISA signal (absence of compounds normalized as 1.00)” value came to 1.07. Same read-out and setting: next, `CCOC(=O)C=C1CCCCC1` [Compound 93]: 0.87. On the same count and under the same terms, next, `CC(C)=CCC/C(C)=C/CC/C(C)=C/CC/C(C)=C/C1=N[C@H](CC(C)C)C(=O)O1` [Compound 37c, (R)-4-isobutyl-2-((1E,5E,9E)-2,6,10,14-tetramethylpentadeca-1,5,9,13-tetraen-1-yl)oxazol-5(4H)-one]: 0.99.

Staying with this assay, now noted: 10uM, 48 hrs compound then 24 hrs GGTI-298.
As to `CCOC(=O)CNC(=O)OC/C=C(\C)CC/C=C(\C)CCC=C(C)C` [Compound 8k, Carboethoxymethyl 2E, 6E-farnesyl carbamate], the “HSP70 level, ELISA signal (absence of compounds normalized as 1.00)” value was determined as 0.99. The same measure, in the same setting: next, `CC(C)=CCC/C(C)=C/CC/C(C)=C/CC/C(C)=C/CNC12CC3CC(CC(C3)C1)C2` [Compound 17e, N-Adamantyl-2E,6E,10E-Geranylgeranyl amine]: 1.06; `CC(C)=CCC/C(C)=C/CC/C(C)=C/COC(=O)NC1CCCC1` [Compound 8c, Cyclopentyl 2E, 6E-farnesyl carbamate]: 1.46. Still for that read-out and setting: with `CC(C)=CCC/C(C)=C/CC/C(C)=C/CC/C(C)=C/c1nnc(-c2cccnc2)o1` [Compound 29e, 2-(pyridin-3-yl)-5-((1E,5E,9E)-2,6,10,14-tetramethylpentadeca-1,5,9,13-tetraen-1-yl)-1,3,4-oxadiazole] the figure was 1.10; with `CCCCCCNC(=S)OC/C=C(\C)CC/C=C(\C)CC/C=C(\C)CCC=C(C)C` [Compound 10h, n-Hexyl 2E,6E,10E-geranylgeranyl thiocarbamate], 1.58; with `COc1cc(NC(=O)OC/C=C(\C)CC/C=C(\C)CC/C=C(\C)CCC=C(C)C)cc(OC)c1OC` [Compound 7v, 3′,4′,5′-Trimethoxyphenyl 2E, 6E, 10E-geranylgeranyl carbamate], 1.13.

With `CC(C)=CCC/C(C)=C/CC/C(C)=C/CC/C(C)=C/COC(=O)NCc1ccccc1` [Compound 7l, Benzyl 2E, 6E, 10E-geranylgeranyl carbamate], the “HSP70 level, ELISA signal (absence of compounds normalized as 1.00)” value is recorded as 1.10.

`CC(C)=CCC/C(C)=C/CC/C(C)=C/COC(=O)Nc1ccc(C(F)(F)F)cc1` [Compound 8n, p-Trifluoromethylphenyl 2E, 6E-farnesyl carbamate]: the “HSP70 level, ELISA signal (absence of compounds normalized as 1.00)” value is 1.02. Regarding `CCOc1ccccc1C(=O)OC/C=C(\C)CC/C=C(\C)CC/C=C(\C)CCC=C(C)C` [Compound 2j, 2E, 6E, 10E-Geranylgeranyl-2′ethoxybenzoate], the “HSP70 level, ELISA signal (absence of compounds normalized as 1.00)” value was 0.95. On the same count and under the same terms, next, `CC(C)=CCC/C(C)=C/CC/C(C)=C/COC(=S)NCCCN1CCOCC1` [Compound 9k, Morpholinyl-N-3′-propyl 2E, 6E-farnesyl thiocarbamate]: 0.97; `CC(C)=CCC/C(C)=C/CC/C(C)=C/COC(=S)NC1CC1` [Compound 9d, Cyclopropyl 2E, 6E-farnesyl thiocarbamate]: 0.95.

In the case of `CC(C)=CCC/C(C)=C/CC/C(C)=C/c1cnco1` [Compound 12, 5-((1E,5E)-2,6,10-trimethylundeca-1,5,9-trien-1-yl)oxazole], the “HSP70 level, ELISA signal (absence of compounds normalized as 1.00)” value amounted to 1.01. The same measure, in the same setting: with `CC(C)=CCC/C(C)=C/c1nc(-c2ccc(F)cc2)no1` [Compound 35b, (E)-5-(2,6-dimethylhepta-1,5-dien-1-yl)-3-(4-fluorophenyl)-1,2,4-oxadiazole] the figure was 0.95. With `CC(C)=CCC/C(C)=C/CC/C(C)=C/CC/C(C)=C/COC(=O)c1cc([N+](=O)[O-])cc([N+](=O)[O-])c1` [Compound 2g, 2E, 6E, 10E-Geranylgeranyl-3′,5′-dinitrobenzoate], the “HSP70 level, ELISA signal (absence of compounds normalized as 1.00)” value was 0.91. On the same count and under the same terms, with `CCNC(=O)OC/C=C(\C)CC/C=C(\C)CCC=C(C)C` [Compound 8h, Ethyl 2E, 6E-farnesyl carbamate] the figure was 0.86. With `CC(C)=CCC/C(C)=C/CC/C(C)=C/CC/C(C)=C/COC(=O)Nc1ccc2c(c1)Cc1ccccc1-2` [Compound 7x, 9′H-Fluoren-2′-yl isocyanate 2E, 6E, 10E-geranylgeranyl carbamate], the “HSP70 level, ELISA signal (absence of compounds normalized as 1.00)” value is listed as 1.00. On the same count and under the same terms, with `CCCCCCCN(C)C/C=C(\C)CC/C=C(\C)CC/C=C(\C)CCC=C(C)C` [Compound 17c, N-Heptyl-N-Methyl-2E,6E,10E-Geranylgeranyl amine] the figure was 1.01; with `CCC(C)NC(=S)OC/C=C(\C)CC/C=C(\C)CC/C=C(\C)CCC=C(C)C` (stereo not drawn) [Compound 10c, sec-Butyryl 2E,6E,10E-geranylgeranyl thiocarbamate], 1.53. Same read-out and setting: next, `CC(C)=CCC/C(C)=C/c1nc(-c2ccncc2)no1` [Compound 35d, (E)-5-(2,6-dimethylhepta-1,5-dien-1-yl)-3-(pyridin-4-yl)-1,2,4-oxadiazole]: 1.05; `CC(C)=CCC/C(C)=C/CC/C(C)=C/COC(=O)NC1CCCCCC1` [Compound 8d, Cycloheptyl 2E, 6E-farnesyl carbamate]: 1.33.

`CNC(=S)OC/C=C(\C)CC/C=C(\C)CC/C=C(\C)CCC=C(C)C` [Compound 10a, Methyl 2E,6E,10E-geranylgeranyl thiocarbamate]: the “HSP70 level, ELISA signal (absence of compounds normalized as 1.00)” value was found to be 1.17. The same measure, in the same setting: next, `CC(C)=CCC/C(C)=C/CC/C(C)=C/COC(=O)Nc1ccc(C)cc1` [Compound 8l, p-Tolyl 2E, 6E-farnesyl carbamate]: 1.03; `CC(C)=CCC/C(C)=C/CC/C(C)=C/CC/C(C)=C/C1=N[C@@H](CC(C)C)CO1` [Compound 27c, (S)-4-isobutyl-2-((1E,5E,9E)-2,6,10,14-tetramethylpentadeca-1,5,9,13-tetraen-1-yl)-4,5-dihydrooxazole]: 0.95. On the same count and under the same terms, with `CC(C)=CCC/C(C)=C/CC/C(C)=C/COC(=O)NC(C)C` [Compound 8a, iso-Propyl 2E,6E-farnesyl carbamate] the figure was 1.33; with `CC(C)=CCC/C(C)=C/CC/C(C)=C/CC/C(C)=C/C1=N[C@H](CC(C)C)CO1` [Compound 27f, (R)-4-isobutyl-2-((1E,5E,9E)-2,6,10,14-tetramethylpentadeca-1,5,9,13-tetraen-1-yl)-4,5-dihydrooxazole], 0.91; with `CCCCNC(=S)OC/C=C(\C)CC/C=C(\C)CCC=C(C)C` [Compound 9c, n-Butyl 2E, 6E-farnesyl thiocarbamate], 0.96. On the same count and under the same terms, next, `CC(C)=CCC/C(C)=C/CC/C(C)=C/CC/C(C)=C/COC(=O)Nc1cccc2ccccc12` [Compound 7r, 1′-Naphthyl 2E, 6E, 10E-geranylgeranyl carbamate]: 0.89.

For the origin of these results see patent publication US20150025077A1 (COYOTE PHARMACEUTICALS, INC., priority 2012, published 2015).
